Measurements reported in patent US20210052516A1, “METHOD FOR INCREASING AKKERMANSIA IN INTESTINAL BACTERIAL FLORA BY INGESTING ASTAXANTHIN” (Fuji Chemical Industries Co., Ltd., priority 2018, published 2021).

What was measured:
[1] = tested on: Akkermansia muciniphila; settings: articles reported so far; mice; cited from earlier work
[2] = tested on: bacteria of the genus Akkermansia (Akkermansia muciniphila); test: Intestinal bacterial flora in cecum contents, 16S rRNA sequencing: Akkermansia; format: in vivo; settings: diet containing 0.02% astaxanthin for four weeks vs normal diet, 6-week-old Wistar rats
From the text: Thus, as detailed below, 6-week-old Wistar rats (rodents) were used to compare the intestinal bacterial floras of a group fed with an astaxanthin-containing diet for four weeks and a group fed with a normal diet for four weeks. […] Six-week-old Wistar rats (rodents) were used to compare the intestinal bacterial flora of a group fed with a diet containing 0.02% astaxanthin (an Asx group) and the intestinal bacterial flora of a group fed with a normal diet (a control group). Saline or corticotropin-releasing hormone (CRH) was intravenously administered to the rats after feeding each group with each corresponding diet for four weeks. Three hours after administration, the rats were sacrificed and the intestinal bacterial floras in the cecum contents of each group were analyzed and compared. […] The analysis method included extracting DNA in the cecum contents, amplifying the V3-V4 region in a 16SrRNA gene, and performing sequencing.

[3] = tested on: Clostridia; test: Intestinal bacterial flora in cecum contents, 16S rRNA sequencing: Clostridia; format: in vivo, Wistar rats; settings: diet containing 0.02% astaxanthin for four weeks, control group 58.2%
From the text: (§1) Six-week-old Wistar rats (rodents) were used to compare the intestinal bacterial flora of a group fed with a diet containing 0.02% astaxanthin (an Asx group) and the intestinal bacterial flora of a group fed with a normal diet (a control group).
(§2) Saline or corticotropin-releasing hormone (CRH) was intravenously administered to the rats after feeding each group with each corresponding diet for four weeks.
(§3) Three hours after administration, the rats were sacrificed and the intestinal bacterial floras in the cecum contents of each group were analyzed and compared. The result is shown in the graph of FIG. 1.
(§4) The analysis method included extracting DNA in the cecum contents, amplifying the V3-V4 region in a 16SrRNA gene, and performing sequencing.

[4] = tested on: Lactobacillus; test: Intestinal bacterial flora in cecum contents, 16S rRNA sequencing: Lactobacillus; format: in vivo, Wistar rats; settings: diet containing 0.02% astaxanthin for four weeks, control group 10.9%
From the text: as §1, §2, §3, §4

[5] = tested on: intestinal peristaltic movement induced by CRH; test: Intestinal peristaltic movement induced by CRH administration; format: in vivo, Wistar rats; settings: diet containing 0.02% astaxanthin for four weeks; CRH intravenously
From the text: as §1, §2
Furthermore, enhancement of intestinal peristaltic movement induced by administration of CRH was reduced in the Asx group.

[6] = Body weight of a rodent; format: in vivo; settings: diet containing 0.02% astaxanthin vs normal diet; 24-day-old Wistar rats; PND72,76
From the text: Twenty four-day-old Wistar rats (rodents) were used to compare the body weights of a group fed with a diet containing 0.02% astaxanthin (an Asx group) and the body weights of a group fed with a normal diet (a control group).

[7] = Astaxanthin concentration in human blood (HPLC); format: in vivo; settings: 1 to 60 mg of astaxanthin per day
Experimental: Next, an astaxanthin concentration in human blood was investigated.
In this context, a blood astaxanthin concentration means an astaxanthin concentration in blood serum or blood plasma.
A blood astaxanthin concentration was measured by HPLC.
Five hundred microliters of 50 μg/ml butylhydroxytoluene in ethanol, 100 μl of 100 ng/ml internal standard (ethyl 8′-apo-beta-caroten-8′-oate, Carote Nature, 1010) in acetone, and 500 μl of distilled water were added to 100 μl of the obtained blood serum or blood plasma sample, and the mixture was stirred vigorously for 15 seconds by a vortex mixer.
Furthermore, 5 ml of hexane was added to the blood serum or blood plasma, and subsequently the mixture was stirred vigorously for 15 seconds by the vortex mixer three times and centrifuged at 3500 rpm for 10 minutes.
Four milliliters of the supernatant after centrifugation was collected and filtrated through a membrane filter with a mesh size of 0.45 μm. […]
In parallel, a standard solution was prepared by adding 1 ml of 10 μg/ml internal standard (ethyl 8′-apo-beta-caroten-8′-oate) in acetone to 100 ml of 100 ng/ml astaxanthin (astaxanthin, ALEXIS BIOCHEMICALS, 460-031-M250) in acetone, and was also subjected to reverse-phase HPLC. The blood astaxanthin concentration was calculated based on the peak area ratio of the above-mentioned two solutions obtained by HPLC. […]

[8] = Change in astaxanthin concentration in human blood on long-term ingestion; format: in vivo; settings: 12 mg/day astaxanthin in free form (two capsules of Haematococcus alga extract) for 42 days
Experimental: Next, a test on humans was performed to monitor how an astaxanthin concentration in blood (in blood plasma) changed when astaxanthin was ingested for a long period. A study was performed as follows:
Ten healthy Japanese males and females aged 20 years or older and younger than 50 years
The subjects ingested two capsules per day (equivalent to 12 mg/day astaxanthin in free form) together with water 30 minutes after breakfast for 42 days, with one capsule containing 60 mg of Haematococcus alga extract (equivalent to 6 mg of astaxanthin in free form) and 270 mg of edible oil and fat.
Blood collection was performed 1, 6, 13, 20, 27, 34, and 42 days after the first ingestion of the capsules to obtain blood plasma. The blood astaxanthin concentration was measured by the above-mentioned analytical method (HPLC).

[9] = in vivo; cited from earlier work

Structure (SMILES): COc1cc(CNC(=O)CCCC/C=C/C(C)C)ccc1O [Capsaicin]
- effect on Akkermansia muciniphila population [1]: effect of increasing Akkermansia muciniphila

Structure (SMILES): CC1=C(/C=C/C(C)=C/C=C/C(C)=C/C=C/C=C(C)/C=C/C=C(C)/C=C/C2=C(C)C(=O)C(O)CC2(C)C)C(C)(C)CC(O)C1=O (stereo not drawn) [astaxanthin, 3,3′-dihydroxy-β,β-carotene-4,4′-dione]
- number of bacteria of the genus Akkermansia in the Asx group relative to the control group [2]: about 11.7 times
- proportion of Clostridia in the intestinal bacterial flora of the Asx group [3]: 47.6%
- proportion of Lactobacillus in the intestinal bacterial flora of the Asx group [4]: 5.9%
- enhancement of intestinal peristaltic movement induced by administration of CRH [5]: reduced
- increase in body weight [6]: clearly less
- blood astaxanthin concentration (serum or plasma), range [7]: no more than 600 ng/ml
- astaxanthin concentration in human blood plasma at plateau [8]: around 200 ng/ml
- time after beginning of ingestion at which blood plasma concentration started to plateau [8]: about 6 days
- absorption percentage in the intestine [9]: about 5%
